PubChem BioAssay AID1963827 (Molecular Pharmacology Branch, DTP, NCI, 2024)

System: 994946-033-R-J1-PDC complex spheroid viability
Assay: Anticancer human tumor 994946-033-R-J1-PDC patient-derived melanoma cell line growth inhibition [POLQ]
Details: for IC50: curve of first compound; for viability, T/C: stronger effect = lower value
How it was run: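 PDC + HUVEC + MSC complex spheroids; POLQ inhibitors ± partner drugs; top conc. at/near clinical Cmax, else 10 microM (SN-38 1 microM), half-log dilutions; 37 degrees C, 5% CO2.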

[1] = second compound 0.0316 µM, first compound 0.0316 µM
[2] = second compound 0.0316 µM, first compound 0.1 µM
[3] = second compound 0.0316 µM, first compound 0.316 µM
[4] = second compound 0.0316 µM, first compound 1 µM
[5] = second compound 0.0316 µM, first compound 3.16 µM
[6] = second compound 0.0316 µM, first compound 10 µM
[7] = second compound 0.1 µM, first compound 0.0316 µM
[8] = second compound 0.1 µM, first compound 0.1 µM
[9] = second compound 0.1 µM, first compound 0.316 µM
[10] = second compound 0.1 µM, first compound 1 µM
[11] = second compound 0.1 µM, first compound 3.16 µM
[12] = second compound 0.1 µM, first compound 10 µM
[13] = second compound 0.316 µM, first compound 0.0316 µM
[14] = second compound 0.316 µM, first compound 0.1 µM
[15] = second compound 0.316 µM, first compound 0.316 µM
[16] = second compound 0.316 µM, first compound 1 µM
[17] = second compound 0.316 µM, first compound 3.16 µM
[18] = second compound 0.316 µM, first compound 10 µM
[19] = second compound 1 µM, first compound 0.0316 µM
[20] = second compound 1 µM, first compound 0.1 µM
[21] = second compound 1 µM, first compound 0.316 µM
[22] = second compound 1 µM, first compound 1 µM
[23] = second compound 1 µM, first compound 3.16 µM
[24] = second compound 1 µM, first compound 10 µM
[25] = second compound 3.16 µM, first compound 0.0316 µM
[26] = second compound 3.16 µM, first compound 0.1 µM
[27] = second compound 3.16 µM, first compound 0.316 µM
[28] = second compound 3.16 µM, first compound 1 µM
[29] = second compound 3.16 µM, first compound 3.16 µM
[30] = second compound 3.16 µM, first compound 10 µM
[31] = second compound 10 µM, first compound 0.0316 µM
[32] = second compound 10 µM, first compound 0.1 µM
[33] = second compound 10 µM, first compound 0.316 µM
[34] = second compound 10 µM, first compound 1 µM
[35] = second compound 10 µM, first compound 3.16 µM
[36] = second compound 10 µM, first compound 10 µM
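Further: spheroids exposed to drugs for 7 days.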
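Wherever viability, T/C is given: 100% = DMSO vehicle treated spheroids.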

Compound `CC1COCCN1c1cc(-c2ccnn2C)c2ccnc(-c3ccn[nH]3)c2n1` (stereo not drawn) + Nc1ccc(C#CCN(C(=O)Cc2ncc(C(F)(F)F)cc2C(F)(F)F)c2ccc(F)cc2)nn1 has an IC50 (second compound 0.0316 µM) of 0.0644 µM, an IC50 (second compound 0.1 µM) of 0.0729 µM and an IC50 (second compound 0.316 µM) of 0.0725 µM. The IC50 (second compound 1 µM) was 0.0739 µM, the IC50 (second compound 3.16 µM) was 0.062 µM and the IC50 (second compound 10 µM) was 0.0806 µM. It also gave a viability, T/C [1] of 65.8%, a viability, T/C [2] of 41.7% and a viability, T/C [3] of 21.8%. For the same compound, the viability, T/C [4] was 29.1%, the viability, T/C [5] was 19.8% and the viability, T/C [6] was 15.4%. It also gave a viability, T/C [7] of 86.3%, a viability, T/C [8] of 31.8% and a viability, T/C [9] of 29.6%. It also gave a viability, T/C [10] of 26%, a viability, T/C [11] of 16.3% and a viability, T/C [12] of 9.84%. The viability, T/C [13] was 70.5%, the viability, T/C [14] was 40.5% and the viability, T/C [15] was 26.1%. For the same compound, the viability, T/C [16] was 23.6%, the viability, T/C [17] was 17.5% and the viability, T/C [18] was 9.71%. The viability, T/C [19] was 75.5%, the viability, T/C [20] was 33.7% and the viability, T/C [21] was 32.9%. It also gave a viability, T/C [22] of 33.6%, a viability, T/C [23] of 15.4% and a viability, T/C [24] of 14.1%. It also gave a viability, T/C [25] of 60.7%, a viability, T/C [26] of 42.4% and a viability, T/C [27] of 22.1%. The viability, T/C [28] was 21.1%, the viability, T/C [29] was 25.6% and the viability, T/C [30] was 14.1%. The viability, T/C [31] was 76.1%, the viability, T/C [32] was 44% and the viability, T/C [33] was 21.1%. The viability, T/C [34] was 21.7%, the viability, T/C [35] was 21.6% and the viability, T/C [36] was 15.8%.
For `CCCS(=O)(=O)Nc1ccc(F)c(C(=O)c2c[nH]c3ncc(-c4ccc(Cl)cc4)cc23)c1F` + Nc1ccc(C#CCN(C(=O)Cc2ncc(C(F)(F)F)cc2C(F)(F)F)c2ccc(F)cc2)nn1, the IC50 (second compound 0.0316 µM) was 6.87 µM, the IC50 (second compound 0.1 µM) was 6.95 µM and the IC50 (second compound 0.316 µM) was 6.8 µM. It also gave an IC50 (second compound 1 µM) of 7.46 µM, an IC50 (second compound 3.16 µM) of 7.31 µM and an IC50 (second compound 10 µM) of 6.3 µM. For the same compound, the viability, T/C [1] was 64.2%, the viability, T/C [2] was 88% and the viability, T/C [3] was 102%. For the same compound, the viability, T/C [4] was 75.3%, the viability, T/C [5] was 107% and the viability, T/C [6] was 31.9%. It also gave a viability, T/C [7] of 99.6%, a viability, T/C [8] of 93% and a viability, T/C [9] of 95.9%. The viability, T/C [10] was 115%, the viability, T/C [11] was 100% and the viability, T/C [12] was 26.8%. The viability, T/C [13] was 80.6%, the viability, T/C [14] was 98.9% and the viability, T/C [15] was 93.9%. It also gave a viability, T/C [16] of 118%, a viability, T/C [17] of 84.5% and a viability, T/C [18] of 32.5%. It also gave a viability, T/C [19] of 84.5%, a viability, T/C [20] of 94.2% and a viability, T/C [21] of 114%. The viability, T/C [22] was 124%, the viability, T/C [23] was 108% and the viability, T/C [24] was 31.3%. For the same compound, the viability, T/C [25] was 95.5%, the viability, T/C [26] was 134% and the viability, T/C [27] was 99.2%. The viability, T/C [28] was 127%, the viability, T/C [29] was 90.9% and the viability, T/C [30] was 34.6%. It also gave a viability, T/C [31] of 114%, a viability, T/C [32] of 85% and a viability, T/C [33] of 85.9%. It also gave a viability, T/C [34] of 96.2%, a viability, T/C [35] of 95.6% and a viability, T/C [36] of 19.6%.
`COc1ccc([C@@H](O)c2cc(-c3ncnc4cc(N5CCOCC5)ccc34)c(F)cc2Cl)nn1` + Nc1ccc(C#CCN(C(=O)Cc2ncc(C(F)(F)F)cc2C(F)(F)F)c2ccc(F)cc2)nn1 gave an IC50 (second compound 0.0316 µM) of 4.98 µM, an IC50 (second compound 0.1 µM) of 6.83 µM and an IC50 (second compound 0.316 µM) of 3.13 µM. For the same compound, the IC50 (second compound 1 µM) was greater than 10 µM, the IC50 (second compound 3.16 µM) was 7.07 µM and the IC50 (second compound 10 µM) was 4.52 µM. The viability, T/C [1] was 90.3%, the viability, T/C [2] was 114% and the viability, T/C [3] was 75.5%. For the same compound, the viability, T/C [4] was 89%, the viability, T/C [5] was 52.8% and the viability, T/C [6] was 45.2%. It also gave a viability, T/C [7] of 91.6%, a viability, T/C [8] of 112% and a viability, T/C [9] of 99.4%. For the same compound, the viability, T/C [10] was 98.7%, the viability, T/C [11] was 62% and the viability, T/C [12] was 44.1%. It also gave a viability, T/C [13] of 93.3%, a viability, T/C [14] of 111% and a viability, T/C [15] of 116%. For the same compound, the viability, T/C [16] was 90.6%, the viability, T/C [17] was 50.7% and the viability, T/C [18] was 37.3%. It also gave a viability, T/C [19] of 114%, a viability, T/C [20] of 117% and a viability, T/C [21] of 115%. For the same compound, the viability, T/C [22] was 61.4%, the viability, T/C [23] was 64.5% and the viability, T/C [24] was 55.1%. It also gave a viability, T/C [25] of 109%, a viability, T/C [26] of 87% and a viability, T/C [27] of 102%. For the same compound, the viability, T/C [28] was 91.3%, the viability, T/C [29] was 67.5% and the viability, T/C [30] was 42.5%. The viability, T/C [31] was 116%, the viability, T/C [32] was 126% and the viability, T/C [33] was 102%. The viability, T/C [34] was 75.7%, the viability, T/C [35] was 62.2% and the viability, T/C [36] was 34%.
With `Cn1ncnc1[C@H]1c2n[nH]c(=O)c3cc(F)cc(c23)N[C@@H]1c1ccc(F)cc1` + Nc1ccc(C#CCN(C(=O)Cc2ncc(C(F)(F)F)cc2C(F)(F)F)c2ccc(F)cc2)nn1 the IC50 (second compound 0.0316 µM) was greater than 0.1 µM, the IC50 (second compound 0.1 µM) was greater than 0.1 µM and the IC50 (second compound 0.316 µM) was greater than 0.1 µM. It also gave an IC50 (second compound 1 µM) greater than 0.1 µM, an IC50 (second compound 3.16 µM) greater than 0.1 µM and an IC50 (second compound 10 µM) greater than 0.1 µM. The viability, T/C (second compound 0.0316 µM, first compound 0.000316 µM) was 98.5%, the viability, T/C (second compound 0.0316 µM, first compound 0.001 µM) was 99.3% and the viability, T/C (second compound 0.0316 µM, first compound 0.00316 µM) was 79.2%. It also gave a viability, T/C (second compound 0.0316 µM, first compound 0.01 µM) of 91.6%, a viability, T/C [1] of 86.8% and a viability, T/C [2] of 54.3%. It also gave a viability, T/C (second compound 0.1 µM, first compound 0.000316 µM) of 101%, a viability, T/C (second compound 0.1 µM, first compound 0.001 µM) of 71.5% and a viability, T/C (second compound 0.1 µM, first compound 0.00316 µM) of 69%. It also gave a viability, T/C (second compound 0.1 µM, first compound 0.01 µM) of 93.8%, a viability, T/C [7] of 59.2% and a viability, T/C [8] of 65.9%. The viability, T/C (second compound 0.316 µM, first compound 0.000316 µM) was 110%, the viability, T/C (second compound 0.316 µM, first compound 0.001 µM) was 48.7% and the viability, T/C (second compound 0.316 µM, first compound 0.00316 µM) was 92.3%. For the same compound, the viability, T/C (second compound 0.316 µM, first compound 0.01 µM) was 70.8%, the viability, T/C [13] was 77.3% and the viability, T/C [14] was 51%. For the same compound, the viability, T/C (second compound 1 µM, first compound 0.000316 µM) was 65.3%, the viability, T/C (second compound 1 µM, first compound 0.001 µM) was 93% and the viability, T/C (second compound 1 µM, first compound 0.00316 µM) was 71.5%. The viability, T/C (second compound 1 µM, first compound 0.01 µM) was 72.4%, the viability, T/C [19] was 59.2% and the viability, T/C [20] was 55%. It also gave a viability, T/C (second compound 3.16 µM, first compound 0.000316 µM) of 116%, a viability, T/C (second compound 3.16 µM, first compound 0.001 µM) of 69.4% and a viability, T/C (second compound 3.16 µM, first compound 0.00316 µM) of 74.5%. For the same compound, the viability, T/C (second compound 3.16 µM, first compound 0.01 µM) was 62%, the viability, T/C [25] was 68.6% and the viability, T/C [26] was 79.7%. It also gave a viability, T/C (second compound 10 µM, first compound 0.000316 µM) of 77.7%, a viability, T/C (second compound 10 µM, first compound 0.001 µM) of 91% and a viability, T/C (second compound 10 µM, first compound 0.00316 µM) of 87.3%. The viability, T/C (second compound 10 µM, first compound 0.01 µM) was 87%, the viability, T/C [31] was 67.7% and the viability, T/C [32] was 57.2%.
